In patent US4542123A (Massachusetts Institute of Technology, priority 1982, dated 1985):
Entries after “also recorded” stand apart in the source; their conditions may differ.

Assay: Plasma amino acid levels after glucose ingestion (Example I, Table 1)
Format: in vivo, human
Procedure: Six healthy, non-obese, fasting subjects each received, on different days 0, 6, 12.5, 25 or 50 g of glucose (Glucola) in a total volume of 100 ml.
Following a protocol approved by the Massachusetts Institute of Technology Committee on the Use of Humans as Experimental Subjects, 6 healthy volunteer outpatients, aged 25-33 years, participated in the study; 3 were males and 3 females. Mean weight was 60 kg for the women and 70 for the men; all subjects were within 10% of their ideal body weight as determined by Metropolitan Life Insurance Company tables. […] Subjects were asked to take meals rich in carbohydrate content (about 300 g/day) for 3 days before beginning the study. On 5 separate days, each subject fasted from 8 p.m. until 9 the next morning and then received a load of 0, 6, 12.5, 25 or 50 g of glucose (caffeine-free glucola) dissolved in water in a total volume of 100 ml; the order of doses was randomized. Venous blood samples were drawn from the antecubital vein through an indwelling catheter at 0, 60 and 120 min for all doses and additionally at 30 and 180 min for the 12.5, 25 and 50 g doses. Blood was collected in heparanized tubes; after centrifugation plasma was stored at -20° C. until analyzed. […] Glucose was analyzed spectrophotometrically after reaction with O-toluidine in hot acidic acid (Sigma Bulletin #635;15). Insulin was measured using a commercial radioimmunoassay kit by a double antibody method (Bio-RIA, Louisville, Ky.). Plasma tryptophan was measured fluorometrically on 20 μl plasma aliquots by the method of Denckla and Dewey, J. Lab. Clin. Med. 69: 160-169, 1967, as modified by Lehman, Scand. J. Clin. Lab. Invest. 28: 49-55, 1971. Branched-chain amino acids and aromatic amino acids were measured in 500 μl aliquots of plasma, deproteinized with sulfosalicylic acid, using a Beckman amino acid analyzer (Beckman Instruments, Palo Alto, Calif., Model 119C).
Data, given as means ±SE errors, were analyzed by two-way analysis of variance; factors compared were dose and time. The Scheffe test was employed to test the statistical significance of differences; p<0.05 was considered significant. Areas under the curves were evaluated by the method of trapezoid approximation. Student tests for paired data were used to evaluate the significance of changes in individual amino acids. Amino acid concentrations after treatments for each subject were also expressed as a percentage of that day's pretreatment levels; mean percent changes were then calculated for each treatment and time interval.
Sum of the LNAA: total concentration of leucine, isoleucine, valine,
the sum of the LNAA, measured 0, 60 and 120 min after 6 nonobese, fasting
subjects ingested 0, 6, 12.5, 25 or 50 g of glucose. All plasma amino
acids, except tryptophan, were measured on a Beckman amino acid analyzer.
Tryptophan was measured by the method of Denckla and Dewey. Data are
expressed as means ± S.E.M.

In the case of `O=C[C@H](O)[C@@H](O)[C@H](O)[C@H](O)CO` [Glucose, glucose], the “Plasma Phe level” value (glucose 12.5 g, 120 min) is reported as 46 ± 2 nmol/mL, the “Plasma Trp level” value (glucose 12.5 g, 120 min) is reported as 41 ± 1 nmol/mL and the “Plasma Tyr level” value (glucose 12.5 g, 120 min) is reported as 50 ± 3 nmol/mL. The “Plasma Val level” value (glucose 12.5 g, 120 min) was 221 ± 98 nmol/mL, the Trp/LNAA (glucose 12.5 g, 120 min) was “.084” and the “Plasma Iso level” value (glucose 25 g, 0 min) was 71 ± 6 nmol/mL. For the same molecule, the “Plasma LNAA (sum)” value (glucose 25 g, 0 min) was 639 ± 79 nmol/mL, the “Plasma Leu level” value (glucose 25 g, 0 min) was 130 ± 13 nmol/mL and the “Plasma Met level” value (glucose 25 g, 0 min) was 26 ± 3 nmol/mL. The “Plasma Phe level” value (glucose 25 g, 0 min) was 56 ± 3 nmol/mL, the “Plasma Trp level” value (glucose 25 g, 0 min) was 47 ± 2 nmol/mL and the “Plasma Tyr level” value (glucose 25 g, 0 min) was 63 ± 3 nmol/mL. For the same molecule, the “Plasma Val level” value (glucose 25 g, 0 min) was 294 ± 50 nmol/mL, the Trp/LNAA (glucose 25 g, 0 min) was “.073” and the “Plasma Iso level” value (glucose 25 g, 60 min) was 48 ± 4 nmol/mL. For the same molecule, the “Plasma LNAA (sum)” value (glucose 25 g, 60 min) was 466 ± 45 nmol/mL, the “Plasma Leu level” value (glucose 25 g, 60 min) was 84 ± 10 nmol/mL and the “Plasma Met level” value (glucose 25 g, 60 min) was 21 ± 2 nmol/mL. The “Plasma Phe level” value (glucose 25 g, 60 min) was 47 ± 4 nmol/mL, the “Plasma Trp level” value (glucose 25 g, 60 min) was 42 ± 2 nmol/mL and the “Plasma Tyr level” value (glucose 25 g, 60 min) was 49 ± 2 nmol/mL. For the same molecule, the “Plasma Val level” value (glucose 25 g, 60 min) was 218 ± 29 nmol/mL, the Trp/LNAA (glucose 25 g, 60 min) was “.091” and the “Plasma Iso level” value (glucose 25 g, 120 min) was 46 ± 4 nmol/mL. The “Plasma LNAA (sum)” value (glucose 25 g, 120 min) was 454 ± 40 nmol/mL, the “Plasma Leu level” value (glucose 25 g, 120 min) was 91 ± 8 nmol/mL and the “Plasma Met level” value (glucose 25 g, 120 min) was 19 ± 2 nmol/mL. For the same molecule, the “Plasma Phe level” value (glucose 25 g, 120 min) was 41 ± 2 nmol/mL, the “Plasma Trp level” value (glucose 25 g, 120 min) was 41 ± 3 nmol/mL and the “Plasma Tyr level” value (glucose 25 g, 120 min) was 46 ± 2 nmol/mL. The “Plasma Val level” value (glucose 25 g, 120 min) was 212 ± 26 nmol/mL, the Trp/LNAA (glucose 25 g, 120 min) was “.089” and the “Plasma Iso level” value (glucose 50 g, 0 min) was 61 ± 4 nmol/mL. For the same molecule, the “Plasma LNAA (sum)” value (glucose 50 g, 0 min) was 573 ± 60 nmol/mL, the “Plasma Leu level” value (glucose 50 g, 0 min) was 114 ± 11 nmol/mL and the “Plasma Met level” value (glucose 50 g, 0 min) was 26 ± 2 nmol/mL. For the same molecule, the “Plasma Phe level” value (glucose 50 g, 0 min) was 50 ± 2 nmol/mL, the “Plasma Trp level” value (glucose 50 g, 0 min) was 46 ± 2 nmol/mL and the “Plasma Tyr level” value (glucose 50 g, 0 min) was 59 ± 4 nmol/mL. For the same molecule, the “Plasma Val level” value (glucose 50 g, 0 min) was 262 ± 40 nmol/mL, the Trp/LNAA (glucose 50 g, 0 min) was “.080” and the “Plasma Iso level” value (glucose 50 g, 60 min) was 48 ± 2 nmol/mL. For the same molecule, the “Plasma LNAA (sum)” value (glucose 50 g, 60 min) was 469 ± 52 nmol/mL, the “Plasma Leu level” value (glucose 50 g, 60 min) was 93 ± 11 nmol/mL and the “Plasma Met level” value (glucose 50 g, 60 min) was 21 ± 2 nmol/mL. For the same molecule, the “Plasma Phe level” value (glucose 50 g, 60 min) was 50 ± 4 nmol/mL, the “Plasma Trp level” value (glucose 50 g, 60 min) was 40 ± 1 nmol/mL and the “Plasma Tyr level” value (glucose 50 g, 60 min) was 43 ± 3 nmol/mL. The “Plasma Val level” value (glucose 50 g, 60 min) was 215 ± 32 nmol/mL, the Trp/LNAA (glucose 50 g, 60 min) was “.085” and the “Plasma Iso level” value (glucose 50 g, 120 min) was 36 ± 4 nmol/mL. The “Plasma LNAA (sum)” value (glucose 50 g, 120 min) was 372 ± 50 nmol/mL, the “Plasma Leu level” value (glucose 50 g, 120 min) was 72 ± 10 nmol/mL and the “Plasma Met level” value (glucose 50 g, 120 min) was 18 ± 2 nmol/mL. The “Plasma Phe level” value (glucose 50 g, 120 min) was 37 ± 2 nmol/mL, the “Plasma Trp level” value (glucose 50 g, 120 min) was 35 ± 2 nmol/mL and the “Plasma Tyr level” value (glucose 50 g, 120 min) was 40 ± 4 nmol/mL. The “Plasma Val level” value (glucose 50 g, 120 min) was 170 ± 30 nmol/mL, the Trp/LNAA (glucose 50 g, 120 min) was “.094” and the “Mean percent reductions of LNAA, dose-dependence” value (healthy fasting subjects, most clearly observed after 120 min) was “tended to exhibit dose-dependence; also recorded: dose-related decreases in plasma LNAA concentrations”. For the same molecule, the “Glucose doses needed to increase the plasma TRP/LNAA ratio” value (healthy young fasting subjects) was 25 to 50 g, the “Mean absolute LNAA concentrations, dose-related decrease” value (high intra- and inter-individual variations in basal LNAA) was “no significant dose-related decreases in mean absolute LNAA concentrations” and the Tryptophan/LNAA ratio (smaller reduction in plasma tryptophan) was “became elevated”. The “Glucose dose sufficient to decrease LNAA” value (some subjects) was 6 g, the “Glucose dose probably required to reduce plasma LNAA” value (subject 2) was about 12.5 g and the “Glucose dose that may have been needed to reduce plasma LNAA” value (subject 4) was about 25 g. The “Glucose dose that may have been sufficient to reduce plasma LNAA” value (subjects 1, 3, 5 and 6, one or more of the times tested) was about 6 g.
